Data: patent US20260232767A1, “INTERLEUKIN-23 RECEPTOR ANTAGONIST PEPTIDES FOR USE IN THE TREATMENT OF PSORIASIS” (Janssen Pharmaceutica NV, priority 2023, published 2026)

Tested on: subjects with moderate-to-severe plaque psoriasis
Test: Safety, adverse events, Example 1
Conditions: 16-week study
Protocol: Adverse events were reported and followed by the investigator. Any clinically relevant changes occurring during the study were recorded. Any clinically significant abnormalities persisting at the end of the study/early withdrawal were followed by the investigator until resolution or until a clinically stable condition was reached if possible. The evaluations of safety and tolerability include: physical examinations, vital signs, electrocardiograms, clinical safety laboratory assessments, review of concomitant medication, pregnancy testing, suicidal ideation evaluation via the Columbia—Suicide Severity Rating Scale, and tuberculosis evaluation.
Safety was assessed among all randomized and treated participants who received at least 1 dose of study agent (partial or complete) according to the assigned treatment received during the study. This is also referred to as the safety analysis set.

In the case of `CC(=O)NCCCC[C@@H]1NC(=O)[C@H](Cc2c[nH]c3c(C)cccc23)NC(=O)[C@H]([C@@H](C)O)NC(=O)[C@H](CC(N)=O)NC(=O)[C@@H](NC(C)=O)C(C)(C)SSC(C)(C)[C@@H](C(=O)N[C@@H](Cc2ccc(OCCN)cc2)C(=O)N[C@@H](Cc2ccc3ccccc3c2)C(=O)NC2(C(=O)N[C@@H](CCC(=O)O)C(=O)N[C@@H](CC(N)=O)C(=O)N[C@@H](Cc3cccnc3)C(=O)N(C)CC(N)=O)CCOCC2)NC1=O` [IL-23 receptor antagonist peptide, Ac-[Pen]*-N-T-[W(7-Me)]-[Lys(Ac)]-[Pen]*-Phe[4-(2-aminoethoxy)]-[2-Nal]-[THP]-E-N-[3-Pal]-Sarc-NH2 (*[Pen]-[Pen]* formdisulfidebond)], the “COVID-19, subjects” value (25 mg BID) is reported as “(19.5%)”, the “Diarrhea, subjects” value (25 mg BID) is reported as “(4.9%)” and the “Discontinued study agent because of adverse events, subjects” value (“Discontinued study agent because” for short) (25 mg BID) is reported as “(2.3%)”. For the same molecule, the “Gastrointestinal disorders, subjects” value (25 mg BID) was “(9.8%)”, the “Headache, subjects” value (25 mg BID) was “(2.4%)” and the “Infections and infestations, subjects” value (25 mg BID) was “(34.1%)”. The “Nasopharyngitis, subjects” value (25 mg BID) was “(7.3%)”, the “Nervous system disorders, subjects” value (25 mg BID) was “(4.9%)” and the “Respiratory, thoracic and mediastinal disorders, subjects” value (25 mg BID) was 0. For the same molecule, the “Subjects with 1 or more Adverse events” value (25 mg BID) was “(48.8%)”, the “Upper respiratory tract infection, subjects” value (25 mg BID) was 0 and the “COVID-19, subjects” value (25 mg QD) was “(11.6%)”. The “Diarrhea, subjects” value (25 mg QD) was “(4.7%)”, the “Discontinued study agent because” value (25 mg QD) was “(7.0%)” and the “Gastrointestinal disorders, subjects” value (25 mg QD) was “(7.0%)”. The “Headache, subjects” value (25 mg QD) was 0, the “Infections and infestations, subjects” value (25 mg QD) was “(34.9%)” and the “Nasopharyngitis, subjects” value (25 mg QD) was “(2.3%)”. For the same molecule, the “Nervous system disorders, subjects” value (25 mg QD) was 0, the “Respiratory, thoracic and mediastinal disorders, subjects” value (25 mg QD) was “(2.3%)” and the “Subjects with 1 or more Adverse events” value (25 mg QD) was “(46.5%)”. For the same molecule, the “Upper respiratory tract infection, subjects” value (25 mg QD) was “(7.0%)”, the “COVID-19, subjects” value (50 mg QD) was “(7.0%)” and the “Diarrhea, subjects” value (50 mg QD) was “(9.3%)”. The “Discontinued study agent because” value (50 mg QD) was “(2.3%)”, the “Gastrointestinal disorders, subjects” value (50 mg QD) was “(14.0%)” and the “Headache, subjects” value (50 mg QD) was “(2.3%)”. The “Infections and infestations, subjects” value (50 mg QD) was “(39.5%)”, the “Nasopharyngitis, subjects” value (50 mg QD) was “(18.6%)” and the “Nervous system disorders, subjects” value (50 mg QD) was “(7.0%)”. For the same molecule, the “Respiratory, thoracic and mediastinal disorders, subjects” value (50 mg QD) was “(2.3%)”, the “Subjects with 1 or more Adverse events” value (50 mg QD) was “(60.5%)” and the “Upper respiratory tract infection, subjects” value (50 mg QD) was 0. The “COVID-19, subjects” value (100 mg BID) was “(9.5%)”, the “Diarrhea, subjects” value (100 mg BID) was “(2.4%)” and the “Discontinued study agent because” value (100 mg BID) was 0. The “Gastrointestinal disorders, subjects” value (100 mg BID) was “(16.7%)”, the “Headache, subjects” value (100 mg BID) was “(2.4%)” and the “Infections and infestations, subjects” value (100 mg BID) was “(26.2%)”. The “Nasopharyngitis, subjects” value (100 mg BID) was “(4.8%)”, the “Nervous system disorders, subjects” value (100 mg BID) was “(4.8%)” and the “Respiratory, thoracic and mediastinal disorders, subjects” value (100 mg BID) was “(4.8%)”. The “Subjects with 1 or more Adverse events” value (100 mg BID) was “(61.9%)”, the “Upper respiratory tract infection, subjects” value (100 mg BID) was “(4.8%)” and the “COVID-19, subjects” value (100 mg QD) was “(7.0%)”. The “Diarrhea, subjects” value (100 mg QD) was “(2.3%)”, the “Discontinued study agent because” value (100 mg QD) was 0 and the “Gastrointestinal disorders, subjects” value (100 mg QD) was “(9.3%)”. The “Headache, subjects” value (100 mg QD) was “(7.0%)”, the “Infections and infestations, subjects” value (100 mg QD) was “(16.3%)” and the “Nasopharyngitis, subjects” value (100 mg QD) was “(2.3%)”. For the same molecule, the “Nervous system disorders, subjects” value (100 mg QD) was “(7.0%)”, the “Respiratory, thoracic and mediastinal disorders, subjects” value (100 mg QD) was “(7.0%)” and the “Subjects with 1 or more Adverse events” value (100 mg QD) was “(44.2%)”. For the same molecule, the “Upper respiratory tract infection, subjects” value (100 mg QD) was 0, the “Deaths, MACE or malignancies” value was “no deaths, MACE or malignancies” and the “COVID-19, subjects” value (Combined doses) was “(10.8%)”. The “Diarrhea, subjects” value (Combined doses) was “(4.7%)”, the “Discontinued study agent because” value (Combined doses) was “(2.3%)” and the “Gastrointestinal disorders, subjects” value (Combined doses) was “(11.3%)”. The “Headache, subjects” value (Combined doses) was “(2.8%)”, the “Infections and infestations, subjects” value (Combined doses) was “(30.2%)” and the “Nasopharyngitis, subjects” value (Combined doses) was “(7.1%)”. The “Nervous system disorders, subjects” value (Combined doses) was “(4.7%)”, the “Respiratory, thoracic and mediastinal disorders, subjects” value (Combined doses) was “(3.3%)” and the “Subjects with 1 or more Adverse events” value (Combined doses) was “(52.4%)”. The “Upper respiratory tract infection, subjects” value (Combined doses) was “(2.4%)”, the “Dose dependence of occurrence of AEs” value (across treatment groups) was “no evidence of dose-dependent increase” and the Tolerability (all treatment groups) was “well-tolerated”.
